The values that follow come from patent publication US20240050395A1 (priority 2020, published 2024).

This experiment concerns SU-DHL-1 lymphoma cells. The settings on record: mouse, in vivo.

Consider `O=P1(N(CCCl)CCCl)NCCCO1` (stereo not drawn) [cyclophosphamide], for which the “animal weight relative to the average weight on day 0” value is reported as 104.7%±1.6%, the mean tumor volume is 367±79 mm^3 and the “tumor volume inhibition rate TGITV” value is −93%.
